Source: patent US20210009541A1, “FUNGICIDAL OXADIAZOLES” (Bayer Aktiengesellschaft, priority 2018, published 2021)

Experiments:
[1] = LogP by HPLC on reversed phase columns (EEC directive 79/831 Annex V.A8); assay type: physicochemical; conditions: reversed phase HPLC column; method [a]: LC-UV, acidic range, 0.1% formic acid in water and acetonitrile as eluent
Procedure: [table] If more than one Log P value is available within the same method, all the values are given and separated by “+”. […] Lambda-max-values were determined using UV-spectra from 200 nm to 400 nm and the peak values of the chromatographic signals.

Phakosporra pachirrhizi = assay: Example D: fungicidal activity against Phakosporra pachirrhizi (spore germination, 96-well imaging); assay type: cell-based; conditions: 30 ppm of active ingredient; wild-type spores, 4 hours at 21° C.; read-out: efficacy (inhibition of the fungal germination)
Procedure: Example D: Fungicidal Activity Against Phakosporra pachirrhizi
Cryo-conserved wild-type spores of the biotroph Phakosporra pachirrhizi are humidified in dedicated chamber overnight at 18° C. in the dark. The next day, a solution of spores at 7×10^3 sp/ml is prepared in a water based growth medium (DH2O+0.2 mM MOPS at pH 7+0.01% Tween 20) and spores are distributed in a 96-MTPS (final volume of 200 μL per well) thanks to a dispenser robot. Each molecule is tested at 10 doses (from 30 to 0.002 ppm final concentration) and accordingly 1.2 μL of each dilution is transferred in dedicated well to end-up with a final concentration of 0.6% DMSO. Wild-type spores and molecules are incubated for 4 hours at 21° C., and 6 images par well are then acquired with Transmitted Light images (Image Xpress Micro microscope, Molecular Devices, Objective 10λ, 6 images per well). Detection and quantification of the number of germinated spores per image is performed with a dedicated in-house developed algorithm (MetaXpress software, Molecular Devices).

[2] = test system: Colletotrichum lindemuthianum; assay: Example E: Colletotrichum lindemuthianum in vitro cell test; assay type: cell-based; conditions: 144 h, 20 ppm of active ingredient, liquid culture, 6 days incubation, read-out: efficacy (inhibition of fungal growth)
Procedure: Example E: Colletotrichum lindemuthianum In Vitro Cell Test
• Solvent: DMSO Culture medium: 14.6 g anhydrous D-glucose (VWR), 7.1 g Mycological Peptone (Oxoid), 1.4 g granulated Yeast Extract (Merck), QSP 1 liter • Inoculum: spores suspension
Active ingredients were solubilized in DMSO and the solution used to prepare the required range of concentrations. The final concentration of DMSO used in the assay was 1%.
A spore suspension of C. lindemuthianum was prepared and diluted to the desired spore density.
The active ingredients were evaluated for their ability to inhibit spores germination and mycelium growth in liquid culture assay. The compounds were added in the desired concentration to the culture medium with spores. After 6 days incubation, fungi-toxicity of compounds was determined by spectrometric measurement of mycelium growth. Inhibition of fungal growth was determined by comparing the absorbance values in wells containing the active ingredient with the absorbance in control wells without active ingredient.

SMILES: CON(C(C)=O)C1CCCc2cc(-c3noc(C(F)(F)F)n3)ccc21 (stereo not drawn) [Compound I-020, N-Methoxy-N-{6-[5-(trifluoromethyl)-1,2,4-oxadiazol-3-yl]-1,2,3,4-tetrahydronaphthalen-1-yl}acetamide]
- chromatographic logP [1]: 3.79
- inhibition at 30 ppm (Phakosporra pachirrhizi): 70 to 79%
- inhibition at 20 ppm [2]: 90 to 100%
